pIC50: −log10 of the molar value. The source made the active and inactive calls. The rule behind the calls is not given here. Where a SMILES comes first, the peptide text is derived from it. The star is where a group is joined. Boc = CC(C)(C)OC(=O)*
Target: Acetylcholinesterase (Homo sapiens) (UniProt P22303)
Assay: Inhibition of AChE (unknown origin) at 5000 nM by Ellman's method

Chain of Acetylcholinesterase (Homo sapiens) (P22303 whole entry): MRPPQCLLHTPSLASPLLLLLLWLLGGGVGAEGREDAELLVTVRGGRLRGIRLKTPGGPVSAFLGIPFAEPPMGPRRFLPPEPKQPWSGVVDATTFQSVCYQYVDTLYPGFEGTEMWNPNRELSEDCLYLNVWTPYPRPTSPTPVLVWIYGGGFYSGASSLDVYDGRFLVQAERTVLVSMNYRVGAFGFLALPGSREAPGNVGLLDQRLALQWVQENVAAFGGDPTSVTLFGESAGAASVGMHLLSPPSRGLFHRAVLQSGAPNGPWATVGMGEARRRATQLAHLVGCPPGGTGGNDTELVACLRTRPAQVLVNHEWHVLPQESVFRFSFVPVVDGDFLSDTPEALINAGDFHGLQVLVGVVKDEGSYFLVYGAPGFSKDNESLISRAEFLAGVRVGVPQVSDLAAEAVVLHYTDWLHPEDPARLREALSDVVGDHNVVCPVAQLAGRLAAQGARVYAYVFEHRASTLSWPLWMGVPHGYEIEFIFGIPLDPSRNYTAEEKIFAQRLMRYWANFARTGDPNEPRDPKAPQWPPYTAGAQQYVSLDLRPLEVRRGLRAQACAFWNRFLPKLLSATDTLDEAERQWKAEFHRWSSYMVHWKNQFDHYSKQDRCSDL

Row | Structure (SMILES) | inhibition
1 | c1ccc2c(CN3CCN(Cc4c[nH]c5ccccc45)CC3)c[nH]c2c1 | inactive
2 | Cc1cc(CSCCc2nc3ccccc3[nH]2)c(O)c(CSCCc2nc3ccccc3[nH]2)c1 | inactive
3 | c1ccc2[nH]c(CN(CCN(Cc3nc4ccccc4[nH]3)Cc3nc4ccccc4[nH]3)Cc3nc4ccccc4[nH]3)nc2c1 | inactive
4 | c1ccc2[nH]c(SCCSc3nc4ccccc4[nH]3)nc2c1 | inactive

Target: T1, Cholinesterase (Homo sapiens, UniProt P06276)
Assay: Inhibition of BChE (unknown origin) at 5 uM incubated for 10 mins by Ellman's method relative to control

T1 sequence (P06276 whole entry): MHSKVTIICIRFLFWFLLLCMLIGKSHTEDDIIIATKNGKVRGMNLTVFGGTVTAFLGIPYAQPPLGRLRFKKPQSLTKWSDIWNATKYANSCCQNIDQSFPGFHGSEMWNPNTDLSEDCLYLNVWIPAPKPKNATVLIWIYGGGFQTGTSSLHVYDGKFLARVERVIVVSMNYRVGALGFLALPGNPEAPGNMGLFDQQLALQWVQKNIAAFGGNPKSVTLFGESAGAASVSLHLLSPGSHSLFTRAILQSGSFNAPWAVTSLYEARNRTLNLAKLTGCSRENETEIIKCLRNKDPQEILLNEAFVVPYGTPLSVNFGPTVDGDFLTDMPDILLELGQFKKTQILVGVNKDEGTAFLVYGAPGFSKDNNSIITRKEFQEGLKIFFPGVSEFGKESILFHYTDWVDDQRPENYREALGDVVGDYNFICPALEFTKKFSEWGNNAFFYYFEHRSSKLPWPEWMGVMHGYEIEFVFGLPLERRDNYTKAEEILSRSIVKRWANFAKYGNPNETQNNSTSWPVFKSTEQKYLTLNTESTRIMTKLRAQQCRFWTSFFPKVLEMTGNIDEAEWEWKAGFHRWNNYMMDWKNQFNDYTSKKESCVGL

Row | Structure (SMILES) | inhibition [%]
5 | O=S(=O)(Cc1nc2ccccc2[nH]1)Cc1nc2ccccc2[nH]1 | 62
6 | O=c1[nH]c2cc(Cl)ccc2n1C1CCN(CCCC(c2ccc(F)cc2)c2ccc(F)cc2)CC1 | 43.2
7 | Cc1ccc2[nH]/c(=N/S(=O)(=O)c3cc(C)c(Cl)cc3S)[nH]c2c1 | 50.9
8 | Cc1ccc2nc(CN(CCN(Cc3nc4ccc(C)cc4[nH]3)Cc3nc4ccc(C)cc4[nH]3)Cc3nc4ccc(C)cc4[nH]3)[nH]c2c1 | 41.7
9 | O=c1[nH]nc(Cc2ccc(Cl)cc2)n1N=Cc1c[nH]c2ccccc12 | 20.7
10 | Cn1c(=O)c2nc(COCc3nc4c(=O)n(C)c(=O)n(C)c4[nH]3)[nH]c2n(C)c1=O | 26.5
11 | Oc1ccc2[nH]c3c(c2c1)C[PH](Cc1cccc2ccccc12)(c1ccccc1)CC3 | 99.7
12 | Cc1[nH]c2ccccc2c1C(=O)CC1(O)C(=O)Nc2c(Cl)cc(Cl)cc21 (stereo not drawn) | 47.5
13 | Cc1[nH]c2ccccc2c1C1=CC(c2c(C)[nH]c3ccccc23)CCC1 (stereo not drawn) | 75
14 | Cc1c(C(=O)CSc2nc3ccccc3[nH]2)c(=O)n(-c2ccccc2)n1C | 62.7
15 | Cc1ccc(S(=O)(=O)OCC2CCc3[nH]c4ccccc4c3C2)cc1 (stereo not drawn) | 73.1
16 | CCn1c(CCCc2nc3c(=O)n(C)c(=O)n(C)c3[nH]2)nc2c1c(=O)n(C)c(=O)n2C | 15.4
17 | Cc1cc(S(=O)(=O)N=c2[nH]c3cccc(C)c3[nH]2)c(SCc2ccccc2)cc1Cl | 55.6
18 | c1ccc2c(CN3CCN(Cc4c[nH]c5ccccc45)CC3)c[nH]c2c1 | 76.5
19 | Cn1c(=O)c2[nH]c(CCCc3nc4c(c(=O)n(C)c(=O)n4C)n3C)nc2n(C)c1=O | 25.3
20 | COC(=O)C(Cc1c[nH]c2ccccc12)NC(=O)C(Cc1c[nH]c2ccccc12)NC(=O)OCc1ccccc1 (stereo not drawn) | 92.9
21 | O=C(Nc1ccccc1)c1cc(S(=O)(=O)Nc2nc3cccnc3[nH]2)c(SSc2cc(Cl)c(C(=O)Nc3ccccc3)cc2S(=O)(=O)Nc2nc3cccnc3[nH]2)cc1Cl | 9.9
22 | Cc1cc(S(=O)(=O)N=c2[nH]c3ccccc3[nH]2)c(SCc2ccccc2)cc1Cl | 65.7
23 | Cn1c(=O)c2[nH]c(C(O)C(O)c3nc4c([nH]3)c(=O)n(C)c(=O)n4C)nc2n(C)c1=O (stereo not drawn) | 25
24 | Cn1c(=O)c2nc(CCCCc3nc4ccccc4[nH]3)[nH]c2n(C)c1=O | 25.6

Row | Structure (SMILES) | inhibition [%]
25 | CCC(C)C(NC(=O)C(CC(C)C)NC(=O)C(N)Cc1c[nH]c2ccccc12)C(=O)NC(Cc1c[nH]c2ccccc12)C(=O)O (stereo not drawn) (H-WLIW-OH; configuration not given here) | 38.9
26 | Cc1cc(CSCCc2nc3ccccc3[nH]2)c(O)c(CSCCc2nc3ccccc3[nH]2)c1 | 101
27 | COC(=O)C(Cc1c[nH]c2ccccc12)NC(=O)C(Cc1c[nH]c2ccccc12)NC(=O)C(Cc1c[nH]c2ccccc12)NC(=O)C(Cc1c[nH]c2ccccc12)NC(=O)OC(C)(C)C (stereo not drawn) (Boc-WWWW-OMe; configuration not given here) | 51.2
28 | c1ccc2[nH]c(CN(CCN(Cc3nc4ccccc4[nH]3)Cc3nc4ccccc4[nH]3)Cc3nc4ccccc4[nH]3)nc2c1 | 92
29 | Cn1c(=O)c2[nH]c(CCc3nc4c([nH]3)c(=O)n(C)c(=O)n4C)nc2n(C)c1=O | 17.9
30 | COc1ccc(OC)c2[nH]c(CCc3nc4c(OC)ccc(OC)c4[nH]3)nc12 | 16.7
31 | c1ccc2[nH]c(SCCSc3nc4ccccc4[nH]3)nc2c1 | 81.2
32 | Fc1ccc2[nH]c3c(c2c1)C[PH](Cc1cccc2ccccc12)(c1ccccc1)CC3 | 97.5
33 | COC(=O)C(Cc1c[nH]c2ccccc12)NC(=O)C(Cc1c[nH]c2ccccc12)NC(=O)C(Cc1c[nH]c2ccccc12)NC(=O)C(Cc1c[nH]c2ccccc12)NC(=O)C(Cc1c[nH]c2ccccc12)NC(=O)C(Cc1c[nH]c2ccccc12)NC(=O)OC(C)(C)C (stereo not drawn) (Boc-WWWWWW-OMe; configuration not given here) | 46
34 | Cc1cc(S(=O)(=O)Nc2nc3ccccc3[nH]2)c(S)cc1Cl | 48.5
35 | Cn1c(=O)c2[nH]c(CCCc3nc4c([nH]3)c(=O)n(C)c(=O)n4C)nc2n(C)c1=O | 19.1
36 | COC(=O)[C@H](Cc1c[nH]c2ccccc12)NC(=O)[C@H](Cc1c[nH]c2ccccc12)NC(=O)[C@H](Cc1c[nH]c2ccccc12)NC(=O)OC(C)(C)C (Boc-Trp-Trp-Trp-OMe) | 79.9
37 | CN(C)c1ccc(C=CC(=O)c2nc3ccccc3[nH]2)cc1 | 43.2
38 | N#CC(C(=O)CCc1nc2ccccc2[nH]1)c1c(Cl)cccc1Cl (stereo not drawn) | 32.7
39 | Cn1c(=O)c2nc(CS(=O)(=O)Cc3nc4c(=O)n(C)c(=O)n(C)c4[nH]3)[nH]c2n(C)c1=O | 8
40 | Cc1nc(C(N)=S)sc1C(=O)CC(=O)C(=O)Nc1nc2ccccc2[nH]1 | 43.5
41 | Cc1cc(S(=O)(=O)NC2=Nc3cccc4cccc(c34)N2)c(S)cc1Cl | 50.3
42 | Cc1ccc(S(=O)(=O)C(C#N)(Cc2c[nH]c3ccccc23)Cc2c[nH]c3ccccc23)cc1 | 48.5
43 | Cc1cc2nc(C(O)C(O)C(O)C(O)c3nc4cc(C)c(C)cc4[nH]3)[nH]c2cc1C (stereo not drawn) | 4

Target: T1, Cholinesterase
Description: Inhibition of BChE (unknown origin) incubated for 10 mins by Ellman's method

Row | Structure (SMILES) | pIC50
44 | CCN(CC)C(C)CN1c2ccccc2Sc2ccccc21 (stereo not drawn) [ETHOPROPAZINE] | 6.68
45 | c1ccc2c(CN3CCN(Cc4c[nH]c5ccccc45)CC3)c[nH]c2c1 | 6.01
46 | Cc1cc(CSCCc2nc3ccccc3[nH]2)c(O)c(CSCCc2nc3ccccc3[nH]2)c1 | 7.49
47 | c1ccc2[nH]c(CN(CCN(Cc3nc4ccccc4[nH]3)Cc3nc4ccccc4[nH]3)Cc3nc4ccccc4[nH]3)nc2c1 | 5.86
48 | c1ccc2[nH]c(SCCSc3nc4ccccc4[nH]3)nc2c1 | 5.52

Reference: ChEMBL document CHEMBL4406906, “Discovery of potent and selective butyrylcholinesterase inhibitors through the use of pharmacophore-based screening” (Bioorg Med Chem Lett, 2019)
